We go through eleven molecules from PubChem BioAssay AID2060882 (Molecular Pharmacology Branch, DTP, NCI, 2025).

Molecules are shown by their SMILES. Where “and” joins values, the source holds several entries; their conditions need not be identical. Identical values can stand only once.

The assay has as its system 898857-211-R-J1-PDC complex spheroids, growth % test/control. Briefly: Anticancer human tumor 898857-211-R-J1-PDC patient-derived melanoma cell line growth inhibition [RAS]. Conditions: for viability, T/C: stronger effect = lower value; for IC50: curve of compound. The source says: RAS pathway inhibitors in Combinations in Complex Spheroids
A high-throughput screen of multi-cell type tumor spheroids was designed to identify active combinations of RAS pathway inhibitors and targeted small molecules. Complex spheroids include a stromal component modeled by human endothelial cells (HUVEC) and fibroblasts modeled by human mesenchymal stem cells (MSCs). The concentration ranges selected for each drug and investigational agent were based upon clinically achievable concentrations if the clinical Cmax of the agent was known.
Compounds. The drugs and investigational agents: abemaciclib (NSC768073), cobimetinib (NSC768068), divarasib (GDC6063, NSC841802), docetaxel (NSC628503), GDC-1971 (RLY-1971, NSC841576), gemcitabine (NSC613327), inavolisib (NSC800729), ipatasertib (NSC767898), KB-0742 (NSC834161), MRTX-1133 (NSC836407), osimertinib (NSC779217), RMC-4630 (NSC839698), RMC-6236 (NSC851965), RMC-6291 (NSC852671), Ro-3306 (NSC812927), sapanisertib (NSC764658), SN-38 (NSC673596), staurosporine (NSC755774), SY5609 (NSC837396), and tovorafenib (DAY101, NSC766906), were obtained from the National Cancer Institute (NCI) Developmental Therapeutics Program Chemical Repository. The FDA-approved anticancer drug set is available from the NCI Developmental Therapeutics Program. […] The stock solutions were prepared in dimethyl sulfoxide (DMSO, Sigma-Aldrich, St. Louis, MO, cat. D2650) at 800-fold the tested concentration and stored at -70 degrees C prior to their use. All drugs and investigational agents were tested over a range starting from a high concentration at or near the clinical Cmax and decreasing in half-log increments. If the clinical Cmax for an agent had not been determined, the highest concentration tested was 10 microM.
Cell Culture. All cells were maintained in an incubator at 37 degrees C and 5% CO2 with 95% humidity. The PDC lines were cultured according to standard operating procedures established by the NCI PDMR. All PDCs were thawed and cultured in Matrigel-coated flasks prepared with a working solution of 1X Ham's F-12 nutrient mix, without supplementation (Invitrogen, Waltham, MA, cat. 11765054), 100 U/mL penicillin-streptomycin (Invitrogen, cat. 15140122), and 2.5% Matrigel (Corning Inc., Corning, NY, cat. 354248) for the first three passages. The 362531-283-R-J2-PDC and 782815-120-R-J1-PDC lines were cultured in 6C/Colon 1B media, which includes advanced DMEM/F-12 (Thermo Fisher Scientific, cat. 12634028), 10 mM HEPES (Thermo Fisher Scientific, cat. 15630080), 1X GlutaMAX supplement (Thermo Fisher Scientific, cat. 35050061), 0.1 mg/mL primocin (InvivoGen, San Diego, CA, cat. ant-pm-2), 10% defined fetal bovine serum, heat inactivated (HyClone Laboratories Inc., Logan, UT, cat. SH30070.03HI), 50% L-WRN conditioned media (ATCC, cat. CRL-3276), 1.25 mM N-Acetyl-L-cysteine (Sigma-Aldrich, cat. A9165), 10 mM nicotinamide (Sigma-Aldrich, cat. N0636), 1X B-27 supplement (Thermo Fisher Scientific, cat. 17504044), 1X N-2 supplement (Thermo Fisher Scientific, cat. 17502048), 50 ng/mL human EGF (Thermo Fisher Scientific, cat. PHG0311), and 10 microM Y-27632 dihydrochloride (Tocris Bioscience, cat. 1254). The K12877-001-R-J1-PDC line was cultured in 6I media, which includes all 6C/Colon 1B media plus 10 ng/mL human FGF-10 (PeproTech, cat. 100-26), 1 ng/mL human FGF-2 (PeproTech, cat. 100-18B), 1 µM prostaglandin E2 (Tocris Bioscience, cat. 2296), […] hydrocortisone (Sigma-Aldrich, cat. H4001), and […] bovine insulin (Sigma-Aldrich, cat. I6634). The K86415-001-R-J1-PDC line was cultured in 6D media, which includes all 6C/Colon 1B media components minus the L-WRN conditioned media. The 485176-168-R4-J1-PDC was cultured in PANC media, which includes all 6C/Colon 1B media plus 100 ng/mL human FGF-10 (PeproTech, cat. 100-26), 500 nM SB-431542 (Selleckchem, cat. S1067), and 10 nM gastrin (Tocris Bioscience, cat. 3006). […]

As a reminder, the viability, T/C is the ratio of treated to control. The term IC50 denotes the concentration that inhibits the measured activity by half.
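Note: spheroids exposed to compound for seven days before readout.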
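Throughout, for viability, T/C: 100% = DMSO vehicle control wells.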

Take `C#Cc1c(F)ccc2cc(O)cc(-c3ncc4c(N5CC6CCC(C5)N6)nc(OCC56CCCN5CC(F)C6)nc4c3F)c12` (stereo not drawn): the viability, T/C is, setting by setting: (compound 0.0316 µM) 105% [middle of 8 runs]; (compound 0.1 µM) 111% [middle of 8 runs]; (compound 0.316 µM) 108% [middle of 8 runs]; (compound 1 µM) 109% [middle of 8 runs]; (compound 3.16 µM) 103% [middle of 8 runs]; (compound 10 µM) 50.8% [middle of 8 runs].
On to `CC(=O)OC12COC1CC(O)C1(C)C(=O)C(O)C3=C(C)C(OC(=O)C(O)C(NC(=O)OC(C)(C)C)c4ccccc4)CC(O)(C(OC(=O)c4ccccc4)C21)C3(C)C` (stereo not drawn), for which the IC50 is less than 31.6 nM. Also, the viability, T/C (compound 0.0316 µM) was 13% [middle of 4 runs]. Also, the viability, T/C (compound 0.1 µM) is 13% [middle of 4 runs]. For the same molecule, the viability, T/C (compound 0.316 µM) is 13.3% [middle of 4 runs]. Where the note is “compound 1 µM”, the viability, T/C is 15.8% [middle of 4 runs]. In addition, the viability, T/C (compound 3.16 µM) is 17.8% [middle of 4 runs]. In addition, the viability, T/C (compound 10 µM) was 20.8% [middle of 4 runs].
In the case of `CC(C)NCC(C(=O)N1CCN(c2ncnc3c2C(C)CC3O)CC1)c1ccc(Cl)cc1` (stereo not drawn), the IC50 is greater than 10000 nM. Where the note is “compound 0.1 µM”, the viability, T/C was 101% [middle of 4 runs]. Also, the viability, T/C (compound 0.316 µM) is 104% [middle of 4 runs]. In addition, the viability, T/C (compound 1 µM) is 93.2% [middle of 4 runs]. In addition, the viability, T/C (compound 3.16 µM) is 78.1% [middle of 4 runs]. Besides, under “compound 10 µM”, the viability, T/C is 58.9% [middle of 4 runs].
Regarding `CC(Nc1ccc2c(c1)OCCn1cc(N3C(=O)OCC3C(F)F)nc1-2)C(N)=O` (stereo not drawn), the IC50 is greater than 10000 nM. Besides, the viability, T/C (compound 0.0316 µM) was 101% [middle of 4 runs]. Moreover, under “compound 0.1 µM”, the viability, T/C was 90.6% [middle of 4 runs]. Further, where the note is “compound 0.316 µM”, the viability, T/C was 102% [middle of 4 runs]. For the same molecule, the viability, T/C (compound 1 µM) was 91.9% [middle of 4 runs]. In addition, the viability, T/C (compound 3.16 µM) is 95.3% [middle of 4 runs]. For the same molecule, for the setting “compound 10 µM”, the viability, T/C was 70.9% [middle of 4 runs].
With `CC1(O)CCCC1n1c(=O)c(C(F)F)cc2cnc(NC3CCN(S(C)(=O)=O)CC3)nc21` (stereo not drawn), the concentration for half-maximal inhibition (IC50) was 232 nM and 169 nM and 149 nM. The viability, T/C (compound 0.0316 µM) is 93.3% and 97.5% and 83.3%. Moreover, the viability, T/C (compound 0.1 µM) was 58.4% and 53.8% and 49.8%. Besides, the viability, T/C (compound 0.316 µM) is 42.2% (2×) and 39.9%. Besides, the viability, T/C (compound 1 µM) is 45.2% and 35.5% and 38.7%. The viability, T/C (compound 3.16 µM) is 41% and 30.3% and 45.7%. Moreover, the viability, T/C (compound 10 µM) is 21.5% and 15.1% and 17.7%.
Regarding `CCC(CC)c1cc(NC2CCC(N)C2)n2nccc2n1` (stereo not drawn), the 50% inhibitory concentration (IC50) is 1.04 µM [middle of 4 runs]. Further, the viability, T/C (compound 0.0316 µM) was 113% [middle of 4 runs]. Also, the viability, T/C (compound 0.1 µM) is 99.5% [middle of 4 runs]. Besides, the viability, T/C (compound 0.316 µM) was 97.5% [middle of 4 runs]. Under “compound 3.16 µM”, the viability, T/C is 1.39% [middle of 4 runs]. Further, where the note is “compound 10 µM”, the viability, T/C was 0.28% [middle of 4 runs].
For `CCN1CCN(Cc2ccc(Nc3ncc(F)c(-c4cc(F)c5nc(C)n(C(C)C)c5c4)n3)nc2)CC1`, the IC50 was 444 nM and 323 nM and 370 nM. Also, the viability, T/C (compound 0.00316 µM) is 112% and 130% and 92.5%. For the same molecule, the viability, T/C (compound 0.01 µM) is 92% (2×) and 103%. In addition, for the setting “compound 0.0316 µM”, the viability, T/C was 97.3% and 96% and 83%. Also, the viability, T/C (compound 0.1 µM) was 73.1% and 62.7% and 65.1%. Moreover, the viability, T/C (compound 0.316 µM) was 51.2% and 51.1% and 55.3%. Moreover, the viability, T/C (compound 1 µM) was 44.4% and 36% and 33.4%.
In the case of `C[C@@H](NC(=O)c1ncnc(N)c1Cl)c1ncc(C(=O)Nc2cc(C(F)(F)F)c(Cl)cn2)s1`, the viability, T/C is, setting by setting: (compound 0.1 µM) 122% [middle of 4 runs]; (compound 1 µM) 81.2% [middle of 4 runs]; (compound 10 µM) 36.8% [middle of 4 runs].
Consider `Cc1nc(N2CCC3(CC2)COC(C)C3N)c(CO)nc1Sc1ccnc(N)c1Cl` (stereo not drawn), for which the IC50 is greater than 10000 nM. Further, the viability, T/C (compound 0.0316 µM) is 100% [middle of 4 runs]. For the same molecule, the viability, T/C (compound 0.1 µM) was 89.5% [middle of 4 runs]. Moreover, the viability, T/C (compound 0.316 µM) is 101% [middle of 4 runs]. Moreover, the viability, T/C (compound 1 µM) was 95.5% [middle of 4 runs]. The viability, T/C (compound 3.16 µM) was 99.2% [middle of 4 runs]. Where the note is “compound 10 µM”, the viability, T/C was 93.4% [middle of 4 runs].
For `NC1c2ccccc2OC12CCN(c1cnc3c(N4CCCc5ncccc54)n[nH]c3n1)CC2` (stereo not drawn), the IC50 is > 10000 nM and 9390 nM. The viability, T/C (compound 0.0316 µM) is 98.9% [middle of 4 runs]. The viability, T/C (compound 0.1 µM) is 88.9% [middle of 4 runs]. Also, the viability, T/C (compound 0.316 µM) was 97.4% [middle of 4 runs]. Under “compound 1 µM”, the viability, T/C is 87% [middle of 4 runs]. The viability, T/C (compound 3.16 µM) is 94.4% [middle of 4 runs].
As to `Nc1ccn(C2OC(CO)C(O)C2(F)F)c(=O)n1` (stereo not drawn), the IC50 was 7.17 nM [middle of 4 runs]. For the same molecule, the viability, T/C (compound 0.01 µM) is 30.2% [middle of 4 runs]. In addition, the viability, T/C (compound 0.0316 µM) is 6.09% [middle of 4 runs]. The viability, T/C (compound 0.1 µM) is 4.85% [middle of 4 runs]. The viability, T/C (compound 0.316 µM) was 4.59% [middle of 4 runs]. Further, for the setting “compound 1 µM”, the viability, T/C is 4.83% [middle of 4 runs].
